Among the data in US20260364057A1, “AMIDE COMPOUND, AND COMPOSITION AND USE THEREOF” (SIMCERE ZAIMING PHARMACEUTICAL CO., LTD., priority 2022, published 2026) are IC50 values, retold here.

The target of assay [1] is T1, Human KIF18A (1-376aa) (Homo sapiens, UniProt Q8NI77).
T1 construct: Human KIF18A (1-376aa) protease used in the experiments; purchased Shanghai Panchao Biotechnology Co., Ltd
T1 sequence (Q8NI77 1-376): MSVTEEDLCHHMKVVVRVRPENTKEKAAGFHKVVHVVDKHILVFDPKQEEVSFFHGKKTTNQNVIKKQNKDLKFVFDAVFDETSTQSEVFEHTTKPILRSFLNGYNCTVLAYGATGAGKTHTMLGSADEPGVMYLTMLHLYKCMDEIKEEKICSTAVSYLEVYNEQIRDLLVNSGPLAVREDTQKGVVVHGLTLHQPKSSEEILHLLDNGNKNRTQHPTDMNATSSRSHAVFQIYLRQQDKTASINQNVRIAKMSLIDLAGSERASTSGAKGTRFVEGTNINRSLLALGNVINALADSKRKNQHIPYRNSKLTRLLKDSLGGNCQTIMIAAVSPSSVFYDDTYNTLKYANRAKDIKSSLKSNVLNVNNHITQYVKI
Briefly: KIF18A enzyme activity assay (ADP-Glo). It is filed as biochemical. The following applies: microtubule 50 μg/mL, ATP (Km 70 μM), room temperature, 15 min, read-out: KIF18A inhibitory activity IC50.

Assay [2] deals with OVCAR3 cells. Briefly: Inhibition of proliferation of OVCAR-3 cells (Cell-Titer Glo). It is filed as cell-based. The following applies: Homo sapiens, OVCAR-3, 72 h, 3 days, 1000 cells/well. An excerpt:
Test Example 2. Test on Inhibition of Proliferation of OVCAR-3 Cells by Compounds of Present Disclosure
Cell and material: The human ovarian cancer cell line OVCAR3 was purchased from ATCC (Cat. No. HTB-161™), RPMI 1640 medium (Gibco #A1049101), penicillin-streptomycin (Gibco #15140122), and 0.25% Trypsin-EDTA (Gibco #25200056) were purchased from Gibco (U.S.), bovine insulin (Yeasen #40107ES60) was purchased from Yeasen, 384-well plates (Corning #CLS3765) was purchased from Corning (U.S.), and Cell-Titer Glo reagent (Promega #G7568) was purchased from Promega (U.S.).
Cell culture: OVCAR3 cells were cultured in RPMI 1640 complete medium (RPMI 1640 medium containing 20% fetal bovine serum, […] bovine insulin, and 1% penicillin-streptomycin) in an incubator (37 °C, 5% CO2), and the cells could be used in experiments when in the logarithmic growth phase.
Cell proliferation activity test: The Cell-Titer Glo reagent was used to test the compound for inhibition of proliferation of the OVCAR3 cell strain. The compound formulated with DMSO and pure DMSO (control) were each added to a 384-well plate using an Echo instrument; the compound was subjected to 3-fold serial dilution starting from 30 μM to obtain 11 concentration points, and the volume of the compound or DMSO added was 100 nL.
OVCAR3 cells were digested and resuspended in RPMI 1640 complete medium, and the suspension was added to a 384-well plate (1000 cells/50 μL/well) to be well mixed with the compound. The mixture was incubated in an incubator (37 °C, 5% CO2) for 3 days. The Cell-Titer Glo reagent was added at 25 µL/well, and the resulting mixture was well mixed by shaking and then incubated for 10 min. The Cell-Titer Glo readings were measured with a Multimode Plate Reader (brand: PerkinElmer; model: SIC-PV-018).
A negative control group (Bottom) was set, and the negative control group was medium wells with 0.2% DMSO added and was defined as 100% proliferation inhibition; the positive control group (Top) was OVCAR3 cell wells with 0.2% DMSO added.
The percent proliferation inhibition (% Inhibition) was calculated, and the curves were fit using the four-parameter equation, Y=Bottom+(Top−Bottom)/(1+(IC50/X)^HillSlope), to obtain the proliferation inhibition IC50 of the compound. • Percent inhibition: % Inhibition=(1−(Signal−Bottom)/(Top−Bottom))×100%. • Signal: Cell-Titer Glo reading of wells with compound added; • Bottom: Cell-Titer Glo reading of negative control wells; • Top: Cell-Titer Glo reading of positive control wells.

With `CCNC(=O)c1ccc(NC(=O)c2ccc(NS(=O)(=O)CCO)cc2N2CCC3(CC2)CC3)c2nc3n(c12)CCCCC3` [Compound 113], the half-inhibitory concentration (IC50) is under 200 nM in assay [1] and 5.32 nM in assay [2].

On to `O=C(Nc1cc2c(c(N3CC4C(C3)C4(F)F)c1)OCC2)c1ccc(NS(=O)(=O)CCO)cc1N1CCC2(CC1)CC2` (stereo not drawn) [Compound 114], for which the results for the IC50 in assay [1] and in assay [2] were under 200 nM and 10.7 nM, respectively.

Consider `O=C(Nc1cccc2c1cc1n2CCCCC1)c1ccc(NS(=O)(=O)CCO)cc1N1CCC2(CC1)CC2` [Compound 115], for which the figures for the IC50 in assay [1] and in assay [2] were under 200 nM and 23 nM, respectively.
